The term IC50 denotes the midpoint of a concentration-inhibition curve.

The values that follow come from patent US9914735B2, “Heteroaryl Syk inhibitors” (Boehringer Ingelheim International GmbH, priority 2014, dated 2018).

Where two headings read alike, the source gives them in different places.

A short description of data set [1]: Human liver microsomal stability test. In kind it is in vitro ADME. Particulars: human liver microsomes; Qh = liver blood flow. As to the method: The metabolic degradation for a specific SYK-inhibitor is performed at 37° C. with pooled human liver microsomes (human liver microsomes are commercially available as “BD UltraPool™” by Corning Life Sciences, Fogostraat 12, 1060 LJ Amsterdam, The Netherlands). The final incubation volume of 100 μl per time point contains TRIS buffer pH 7.6 at RT (0.1 M), magnesium chloride (5 mM), microsomal protein (1 mg/ml) and the test compound at a final concentration of 1 μM.
Following a short preincubation period at 37° C., the reaction is initiated by addition of beta-nicotinamide adenine dinucleotide phosphate in its reduced form (NADPH, 1 mM) and terminated by transfering an aliquot into solvent after different time points. Additionally, the NADPH-independent degradation is monitored in incubations without NADPH, terminated at the last time point.
The quenched (terminated) incubations are then pelleted by centrifugation (10000 g, 5 min).
An aliquot of the supernatant is assayed by LC-MS/MS for the remaining amount of parent compound. The half-life (t1/2 INVITRO) is determined by the slope of the semilogarithmic plot of the concentration-time profile.
The intrinsic clearance (CL_[…]) is calculated by considering the amount of protein in the incubation: CL_[…][μl/min/mg protein]=(Ln 2/(t1/2 INVITRO[min]*protein content[mg/ml]))*1000
The protein content [mg/ml] was determined with the “Bicinchoninic Acid Kit” of Sigma Aldrich (commercially available).
The upscaled intrinsic Clearance (CL_UP_INT) is calculated by considering the liver weight [g liver/kg body weight] and the microsomal recovery [mg protein/g liver]: CL_UP_INT[ml/min/kg]=0.001*CL_[…]*liver weight*microsomal recovery • with microsomal recovery=45 mg protein/g liver • with liver weight=25.7 g liver/kg body weight
The percent hepatic blood flow (% Qh) is finally calculated by considering the human liver blood flow Q [ml/min/kg]: % Qh[%]=((Q*CL_UP_INT)/(Q+CL_UP_INT)/Q)*100 • with liver blood flow (Q)=20.7 ml/min/kg.
A general note: Microsomes from liver hold many membrane-bound enzymes, among them those of drug oxidation.

In the next data set the target is Human GSK3beta (Homo sapiens (Human), UniProt P49841). The data set is described as follows: GSK 3beta kinase test (Z'-LYTE). Particulars: read-out: IC50 in μM (GSK3beta-Inhibition). In kind it is biochemical. As to the method: Human GSK3beta (expressed and prified from SF21 cells) is obtained from the University Dundee/Scotland (Dr. James Hastie—Dept. of Biochemistry) in 50 mM Tris (pH7.5); 150 mM NaCl; 0.1 mM EGTA, 270 mM Succrose, 0.1% β-mercaptoethanol, 1 mM benzamidine, 0.2 mM PMSF; sequence see below). The enzyme is diluted to 3.56 μM (168 μg/ml) in enzyme dilution buffer and 6 μl aliquots are stored at −80° C.
The activity of GSK3 kinase protein is measured using the Z′-LYTETM assay technology from Invitrogen (# PV3324).
The assay is performed in 384 black plates from Corning (#3676) in a final volume of 10 μl by adding 5 μl of kinase peptide mix and 2.5 μl of compound dilution. The reaction is started by addition of 2.5 μl of the 4×ATP solution.
Positive controls are reaction mixtures containing no test compound; negative controls (blanks) are reaction mixtures containing no ATP. As a further control, the phosphopeptide solution is added to wells without kinase and without ATP (=100% phosphorylation control).
The non inhibited kinase reaction will result in a phosphorylation corresponding to 20%-30% of the phosphorylation control.
The reaction is performed 1 h at room temperature. After 1h 5 μl of the development solution is added. After a further incubation for 1 h at room temperature 5 μl of the stop reagent is added. Finally the plates are read on a Flex Station II 384 (Molecular Devices).
The output text file is evaluated in an “MS-Excel—VB-Makro” and “GraphPadPrism” (Version 5) (GraphPad Software Inc.) is used to calculate the results. Data for the inhibition of GSK3beta are reported in M. data for the inhibition of the protease are reported in % CTL.

For a further data set, the target named is FLT3 (Homo sapiens (Human), UniProt P36888). In words: FLT3 kinase test (Z'-LYTE). In kind it is biochemical. An outline of the steps: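 Z'-LYTE FRET format; kinase reaction started with ATP, run 1 h at room temperature, then 1 h development before stop reagent. Controls without compound, without kinase, and phosphopeptide as 100% phosphorylation reference; values reported in M.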

In data set [2] the target is Recombinant human Aurora B (amino acids 1-344) (Homo sapiens (Human), UniProt Q96GD4). In words: Aurora B kinase test (ADP Glo luminescence). In kind it is biochemical. (In ADP-Glo the light output rises with the ADP produced.)
Data set [3] concerns the target Recombinant human Syk (amino acids 342-635), GST-Syk kinase fusion protein (Homo sapiens (Human), UniProt P43405). The data set is described as follows: Syk kinase test (Kinase Glo luminescence). The class given is biochemical. As to conditions: read-out: IC50 in μM (SYK-Inhibition). On the technique in general: In Kinase-Glo more light means more ATP remaining.
[4] abbreviates: read-out: IC50 in μM (FLT3-Inhibition).
Setting [5] is: read-out: IC50 in μM (AURB-Inhibition).

Sequence of Human GSK3beta (P49841 whole entry): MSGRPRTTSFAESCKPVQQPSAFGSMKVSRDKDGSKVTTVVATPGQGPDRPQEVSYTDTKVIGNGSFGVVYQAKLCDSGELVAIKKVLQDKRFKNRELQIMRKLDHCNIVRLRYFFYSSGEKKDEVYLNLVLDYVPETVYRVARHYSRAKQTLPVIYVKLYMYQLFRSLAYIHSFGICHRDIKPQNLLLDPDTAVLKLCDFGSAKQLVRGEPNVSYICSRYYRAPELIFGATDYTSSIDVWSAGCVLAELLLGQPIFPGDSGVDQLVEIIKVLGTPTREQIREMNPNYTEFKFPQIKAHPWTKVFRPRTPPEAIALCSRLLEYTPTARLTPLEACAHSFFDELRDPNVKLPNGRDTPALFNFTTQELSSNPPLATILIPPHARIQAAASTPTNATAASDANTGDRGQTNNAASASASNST
Sequence of FLT3 (P36888 27-993): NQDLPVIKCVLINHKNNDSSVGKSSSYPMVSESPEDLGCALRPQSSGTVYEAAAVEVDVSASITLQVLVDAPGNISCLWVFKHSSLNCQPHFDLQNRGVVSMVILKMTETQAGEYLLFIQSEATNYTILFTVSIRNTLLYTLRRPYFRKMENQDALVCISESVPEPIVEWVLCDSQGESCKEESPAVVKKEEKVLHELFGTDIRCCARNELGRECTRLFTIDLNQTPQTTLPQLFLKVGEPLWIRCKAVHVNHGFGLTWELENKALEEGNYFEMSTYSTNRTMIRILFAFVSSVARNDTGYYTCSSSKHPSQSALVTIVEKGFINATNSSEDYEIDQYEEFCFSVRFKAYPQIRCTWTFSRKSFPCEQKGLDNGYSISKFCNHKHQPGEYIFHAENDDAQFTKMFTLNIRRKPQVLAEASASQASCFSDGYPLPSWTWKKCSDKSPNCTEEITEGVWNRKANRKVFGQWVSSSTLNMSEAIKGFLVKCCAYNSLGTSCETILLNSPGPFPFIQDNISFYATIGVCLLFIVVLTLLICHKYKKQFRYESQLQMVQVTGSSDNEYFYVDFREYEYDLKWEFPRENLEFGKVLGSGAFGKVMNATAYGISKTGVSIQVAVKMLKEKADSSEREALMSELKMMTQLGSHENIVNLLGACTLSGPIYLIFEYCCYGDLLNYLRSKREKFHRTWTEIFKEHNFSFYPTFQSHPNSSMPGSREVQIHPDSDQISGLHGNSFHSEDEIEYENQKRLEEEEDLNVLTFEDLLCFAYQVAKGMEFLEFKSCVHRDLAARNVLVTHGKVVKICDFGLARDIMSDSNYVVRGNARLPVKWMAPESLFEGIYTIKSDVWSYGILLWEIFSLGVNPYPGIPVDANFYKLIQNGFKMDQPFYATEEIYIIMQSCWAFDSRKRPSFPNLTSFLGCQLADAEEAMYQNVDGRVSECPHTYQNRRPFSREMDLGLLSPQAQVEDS
Sequence of Recombinant human Aurora B (amino acids 1-344) (Q96GD4 whole entry, the tested form may be a part): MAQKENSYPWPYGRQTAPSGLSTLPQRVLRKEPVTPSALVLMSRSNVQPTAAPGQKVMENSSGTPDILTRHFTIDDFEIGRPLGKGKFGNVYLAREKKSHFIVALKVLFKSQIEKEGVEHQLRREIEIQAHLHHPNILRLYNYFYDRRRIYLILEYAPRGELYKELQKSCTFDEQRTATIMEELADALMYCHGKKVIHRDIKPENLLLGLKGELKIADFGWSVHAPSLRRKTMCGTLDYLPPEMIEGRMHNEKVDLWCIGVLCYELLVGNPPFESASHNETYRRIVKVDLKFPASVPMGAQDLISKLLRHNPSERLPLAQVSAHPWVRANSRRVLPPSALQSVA

As to `COc1cc(-c2cc3ncccc3c(O[C@H](C)[C@H]3CNC(=O)C3)n2)ccc1OC(F)(F)F` [4 of WO 2011/092128], the “microsomal stability Cl [% Qh]” value in data set [1] stood at 33 % Qh. The IC50 on Human GSK3beta is above 10 µM; at FLT3 (setting [4]), 0.633 µM; in data set [2] (setting [5]), 1.85 µM; in data set [3], 0.003 µM.

As to `C[C@@H](Oc1cc(-c2ccccn2)cc2ncccc12)[C@H]1CNC(=O)C1` [6 of WO 2013/014060], the “microsomal stability Cl [% Qh]” value in data set [1] is recorded as 24 % Qh. For the same compound, the IC50 is above 1 µM on Human GSK3beta, 0.64 µM at FLT3 (setting [4]), 1.03 µM in data set [2] (setting [5]) and 0.004 µM in data set [3].

For `COc1cc(-c2cc3ncccc3c(O[C@H](C)[C@H]3CNC(=O)C3)n2)cc(Cl)c1OC` [7 of WO 2011/092128], in data set [1], the “microsomal stability Cl [% Qh]” value came out at 79 % Qh. In addition, the values for the IC50 (on Human GSK3beta; at FLT3 (setting [4]); in data set [2] (setting [5])) were above 10 µM, 0.452 µM and 2.33 µM, respectively.

Regarding `COc1cc(-c2cc3ncccc3c(O[C@H](C)[C@H]3CNC(=O)C3)n2)cc(OC)c1Cl` [8 of WO 2011/092128], the “microsomal stability Cl [% Qh]” value in data set [1] turned out to be 77 % Qh. In addition, the IC50 was above 10 µM on Human GSK3beta, above 50 µM on FLT3 (setting [4]) and above 50 µM in data set [2] (setting [5]).

In the case of `COc1ccc(-c2cc(O[C@H](C)[C@H]3CNC(=O)C3)c3cccnc3c2)cc1OC` [8 of WO 2013/014060], the “microsomal stability Cl [% Qh]” value in data set [1] was 58 % Qh. The values for the IC50 (at Human GSK3beta; at FLT3 (setting [4]); in data set [2] (setting [5])) were above 10 µM, 0.369 µM and 0.643 µM, respectively.

As to `COc1cc(-c2cc(O[C@H](C)[C@H]3CNC(=O)C3)c3cccnc3c2)ccc1OC(C)C` [10 of WO 2013/014060], the “microsomal stability Cl [% Qh]” value in data set [1] is recorded as 57 % Qh. Moreover, the figures for the IC50 (at Human GSK3beta; at FLT3 (setting [4]); in data set [2] (setting [5])) were above 10 µM, 0.312 µM and 0.271 µM, respectively.

On to `C[C@@H](Oc1cc(-c2ccc3ncccc3c2)cc2ncccc12)[C@H]1CNC(=O)C1` [29 of WO 2013/014060], for which the “microsomal stability Cl [% Qh]” value in data set [1] is on record as 44 % Qh. Also, the IC50 at Human GSK3beta is above 10 µM; at FLT3 (setting [4]), 0.315 µM; in data set [2] (setting [5]), 0.293 µM.

`COc1cc(-c2cc3ncccc3c(O[C@H](C)[C@H]3CNC(=O)C3)n2)cc(OC)c1OC` [35 of WO 2011/092128]: the “microsomal stability Cl [% Qh]” value in data set [1] amounted to 62 % Qh. Further, the IC50 at Human GSK3beta was above 10 µM; at FLT3 (setting [4]), 1.18 µM; in data set [2] (setting [5]), 5.21 µM; in data set [3] it was 0.001 µM.

Consider `C[C@@H](Oc1cc(-c2ccc3[nH]cnc3c2)cc2ncccc12)[C@H]1CNC(=O)C1` [41 of WO 2013/014060], for which the “microsomal stability Cl [% Qh]” value in data set [1] was found to be 37 % Qh. Besides, the IC50 is above 10 µM at Human GSK3beta, 0.505 µM on FLT3 (setting [4]) and 0.308 µM in data set [2] (setting [5]).

Take `C[C@@H](Oc1cc(-c2ccc3cnn(C)c3c2)cc2ncccc12)[C@H]1CNC(=O)C1` [42 of WO 2013/014060]: in data set [1], the “microsomal stability Cl [% Qh]” value is recorded as below 23 % Qh. In addition, the results for the half-maximal inhibitory concentration (IC50) (at Human GSK3beta; at FLT3 (setting [4]); in data set [2] (setting [5])) were above 10 µM, 0.618 µM and 0.63 µM, respectively.

Consider `Cc1cn2cc(-c3cc(O[C@H](C)[C@H]4CNC(=O)C4)c4cccnc4c3)ccc2n1` [61 of WO 2013/014060], for which the “microsomal stability Cl [% Qh]” value in data set [1] is below 23 % Qh. Besides, the IC50 at Human GSK3beta is above 10 µM; at FLT3 (setting [4]) it was 0.411 µM; in data set [2] (setting [5]) it was 0.25 µM.

For `C[C@@H](Oc1cc(-c2ccc(C(=O)N3CCN(C)CC3)cc2)cc2ncccc12)[C@H]1CNC(=O)C1` [76 of WO 2013/014060], in data set [1], the “microsomal stability Cl [% Qh]” value is recorded as below 23 % Qh. Moreover, the values for the IC50 (at Human GSK3beta; on FLT3 (setting [4]); in data set [2] (setting [5])) were above 10 µM, 0.169 µM and 0.075 µM, respectively.

Regarding `C[C@@H](Oc1cc(-c2ccc3ncn(C)c3c2)cc2ncccc12)[C@H]1CNC(=O)C1` [81 of WO 2013/014060], the “microsomal stability Cl [% Qh]” value in data set [1] is below 23 % Qh. In addition, the results for the IC50 (at Human GSK3beta; at FLT3 (setting [4]); in data set [2] (setting [5])) were above 10 µM, 0.514 µM and 0.949 µM, respectively.

As for `Cc1nc2ccc(-c3cc(O[C@H](C)[C@H]4CNC(=O)C4)c4cccnc4c3)cc2s1` [85 of WO 2013/014060], the “microsomal stability Cl [% Qh]” value in data set [1] came out at 49 % Qh. In addition, the IC50 on Human GSK3beta is 6.82 µM; on FLT3 (setting [4]), 0.321 µM; in data set [2] (setting [5]) it was 0.46 µM; in data set [3], 0.002 µM.

`C[C@@H](Oc1cc(-c2ccc3c(c2)CNCC3)cc2ncccc12)[C@H]1CNC(=O)C1` [101 of WO 2013/014060]: the “microsomal stability Cl [% Qh]” value in data set [1] is below 23 % Qh. Further, the IC50 was above 10 µM on Human GSK3beta, 0.14 µM on FLT3 (setting [4]) and 1.05 µM in data set [2] (setting [5]).

For the compound `COc1cc(-c2cc(O[C@H](C)[C@H]3CNC(=O)C3)c3cccnc3c2)ccc1C(F)(F)F` [102 of WO 2013/014060], the “microsomal stability Cl [% Qh]” value in data set [1] amounted to 54 % Qh. Besides, the IC50 is above 10 µM at Human GSK3beta, 2.27 µM on FLT3 (setting [4]), 2.63 µM in data set [2] (setting [5]) and 0.013 µM in data set [3].

For `Cc1nc2cc(-c3cc(O[C@H](C)[C@H]4CNC(=O)C4)c4cccnc4c3)ccc2n1C` [105 of WO 2013/014060], the “microsomal stability Cl [% Qh]” value in data set [1] stood at 64 % Qh. Besides, the IC50 was above 10 µM at Human GSK3beta, 0.309 µM on FLT3 (setting [4]), 0.479 µM in data set [2] (setting [5]) and 0.001 µM in data set [3].

On to `Cc1nc(C)c2cc(-c3cc(O[C@H](C)[C@H]4CNC(=O)C4)c4cccnc4c3)ccc2n1` [107 of WO 2013/014060], for which, in data set [1], the “microsomal stability Cl [% Qh]” value was found to be 38 % Qh. The IC50 is above 10 µM at Human GSK3beta, 1.76 µM at FLT3 (setting [4]), 1.82 µM in data set [2] (setting [5]) and 0.009 µM in data set [3].

Consider `Cc1nc2cc(-c3cc(O[C@H](C)[C@H]4CNC(=O)C4)c4cccnc4c3)ccc2[nH]1` [109 of WO 2013/014060], for which the “microsomal stability Cl [% Qh]” value in data set [1] worked out at 41 % Qh. Moreover, the IC50 at Human GSK3beta is above 10 µM; on FLT3 (setting [4]), 0.33 µM; in data set [2] (setting [5]), 0.26 µM; in data set [3], 0.001 µM.

For `COc1cc(-c2cc3nn(C)cc3c(O[C@H](C)[C@H]3CNC(=O)C3)n2)ccc1O` [Example 8, (4R)-4-[(1R)-1-[6-(4-Hydroxy-3-methoxy-phenyl)-2-methyl-pyrazolo[4,3-c]pyridin-4-yl]oxyethyl]pyrrolidin-2-one], the “microsomal stability Cl [% Qh]” value in data set [1] is on record as below 23 % Qh. Besides, the IC50 at Human GSK3beta is above 10 µM; at FLT3 (Table 1, read-out: FLT3-inhibition IC50-value), 13.5 µM; on FLT3 (setting [4]), 13.5 µM; in data set [2] (Table 1, read-out: AURB-inhibition IC50-value), above 50 µM; in data set [2] (setting [5]), above 50 µM.
